ChEMBL document CHEMBL3885861, “Open TG-GATES”

Organism: Rattus norvegicus
Assay: Open TG-GATES - Regimen: Daily Repeat
Assay type: toxicity, organism-based, Sprague-Dawley
Set-up: regimen Daily Repeat, gender Male, age 6 weeks
Details: in vivo, sc, 0 mg/kg, route subcutaneous injection, dose 0 ug/Kg, dose level Control; for APTT / Bas / Eos / Fbg / Hb / Ht / Lym / MCH / MCHC / MCV / Mono / Neu / PT / Plat / RBC / Ret / WBC: tissue Blood; for KIDNEY_L / KIDNEY_R / KIDNEY_TOTAL: tissue Kidney; for LIVER: tissue Liver; for A/G / ALP / ALT / AST / BUN / CRE / Ca / Cl / DBIL / GLC / IP / K / LDH / Na / PL / RALB / TBIL / TC / TG / TP / gamma-GTP: tissue Plasma

CC(=O)O.N=C(N)NCCC[C@@H](NC(=O)[C@@H]1CCCN1C(=O)[C@@H]1CSSCCC(=O)N[C@@H](Cc2ccc(O)cc2)C(=O)N[C@@H](Cc2ccccc2)C(=O)N[C@@H](CCC(N)=O)C(=O)N[C@@H](CC(N)=O)C(=O)N1)C(=O)NCC(N)=O [DESMOPRESSIN ACETATE] gave a TERMINAL_BW (72 h, time 3 day) of 251.2 g, an APTT (72 h, time 3 day) of 16.5 s and a Bas (72 h, time 3 day) of 0%. For the same compound, the Eos (72 h, time 3 day) was 1%, the Fbg (72 h, time 3 day) was 269.4 mg/dL and the Hb (72 h, time 3 day) was 13.2 g/dL. The Ht (72 h, time 3 day) was 40.3%, the Lym (72 h, time 3 day) was 66.8% and the MCH (72 h, time 3 day) was 21.5 pg. For the same compound, the MCHC (72 h, time 3 day) was 32.7%, the MCV (72 h, time 3 day) was 65.7 fL and the Mono (72 h, time 3 day) was 9.6%. For the same compound, the Neu (72 h, time 3 day) was 22.4%, the PT (72 h, time 3 day) was 11.9 s and the Plat (72 h, time 3 day) was 133.8 x10_4/uL. For the same compound, the RBC (72 h, time 3 day) was 613.4 x10_4/ul, the Ret (72 h, time 3 day) was 6.9% and the WBC (72 h, time 3 day) was 105.2 x10_2/uL. It also gave a KIDNEY_L (72 h, time 3 day) of 1 g, a KIDNEY_R (72 h, time 3 day) of 1.1 g and a KIDNEY_TOTAL (72 h, time 3 day) of 2.1 g. For the same compound, the LIVER (72 h, time 3 day) was 11.8 g, the A/G (72 h, time 3 day) was 2 and the ALP (72 h, time 3 day) was 1258.4 IU/L. It also gave an ALT (72 h, time 3 day) of 32.6 IU/L, an AST (72 h, time 3 day) of 68.8 IU/L and a BUN (72 h, time 3 day) of 15.6 mg/dL. The CRE (72 h, time 3 day) was 0.4 mg/dL, the Ca (72 h, time 3 day) was 11.2 mg/dL and the Cl (72 h, time 3 day) was 104.6 meq/L. It also gave a DBIL (72 h, time 3 day) of 0.01 mg/dL, a GLC (72 h, time 3 day) of 185.6 mg/dL and an IP (72 h, time 3 day) of 7.3 mg/dL. It also gave a K (72 h, time 3 day) of 5.4 meq/L, an LDH (72 h, time 3 day) of 203 IU/L and a Na (72 h, time 3 day) of 136 meq/L. For the same compound, the PL (72 h, time 3 day) was 152.2 mg/dL, the RALB (72 h, time 3 day) was 3.7 g/dL and the TBIL (72 h, time 3 day) was 0.034 mg/dL. The TC (72 h, time 3 day) was 79.8 mg/dL, the TG (72 h, time 3 day) was 119.6 mg/dL and the TP (72 h, time 3 day) was 5.6 g/dL. The gamma-GTP (72 h, time 3 day) was 1 IU/L, the TERMINAL_BW ([…], time 7 day) was 275.2 g and the TERMINAL_BW ([…], time 14 day) was 338.4 g. It also gave a TERMINAL_BW ([…], time 28 day) of 413.7 g, an APTT ([…], time 7 day) of 16.5 s and a Bas ([…], time 7 day) of 0%. It also gave an Eos ([…], time 7 day) of 1%, a Fbg ([…], time 7 day) of 262.8 mg/dL and a Hb ([…], time 7 day) of 13.6 g/dL. The Ht ([…], time 7 day) was 41.6%, the Lym ([…], time 7 day) was 68.2% and the MCH ([…], time 7 day) was 21 pg. The MCHC ([…], time 7 day) was 32.8%, the MCV ([…], time 7 day) was 64.2 fL and the Mono ([…], time 7 day) was 7.4%. For the same compound, the Neu ([…], time 7 day) was 23.4%, the PT ([…], time 7 day) was 12 s and the Plat ([…], time 7 day) was 124.2 x10_4/uL. For the same compound, the RBC ([…], time 7 day) was 648.6 x10_4/ul, the Ret ([…], time 7 day) was 6.6% and the WBC ([…], time 7 day) was 103.6 x10_2/uL. It also gave an APTT ([…], time 14 day) of 15.5 s, a Bas ([…], time 14 day) of 0% and an Eos ([…], time 14 day) of 1%. It also gave a Fbg ([…], time 14 day) of 263.4 mg/dL, a Hb ([…], time 14 day) of 14.2 g/dL and a Ht ([…], time 14 day) of 43.5%. For the same compound, the Lym ([…], time 14 day) was 74.8%, the MCH ([…], time 14 day) was 20.7 pg and the MCHC ([…], time 14 day) was 32.6%. For the same compound, the MCV ([…], time 14 day) was 63.2 fL, the Mono ([…], time 14 day) was 7.8% and the Neu ([…], time 14 day) was 16.8%. It also gave a PT ([…], time 14 day) of 11.7 s, a Plat ([…], time 14 day) of 130.6 x10_4/uL and an RBC ([…], time 14 day) of 687 x10_4/ul. The Ret ([…], time 14 day) was 6%, the WBC ([…], time 14 day) was 122.6 x10_2/uL and the APTT ([…], time 28 day) was 17.8 s. For the same compound, the Bas ([…], time 28 day) was 0%, the Eos ([…], time 28 day) was 1.6% and the Fbg ([…], time 28 day) was 249.4 mg/dL. It also gave a Hb ([…], time 28 day) of 15.2 g/dL, a Ht ([…], time 28 day) of 46.3% and a Lym ([…], time 28 day) of 77.4%. It also gave an MCH ([…], time 28 day) of 19 pg, an MCHC ([…], time 28 day) of 32.8% and an MCV ([…], time 28 day) of 58.1 fL. For the same compound, the Mono ([…], time 28 day) was 6.6%, the Neu ([…], time 28 day) was 14.8% and the PT ([…], time 28 day) was 12.3 s. It also gave a Plat ([…], time 28 day) of 113 x10_4/uL, an RBC ([…], time 28 day) of 797.2 x10_4/ul and a Ret ([…], time 28 day) of 3.1%. The WBC ([…], time 28 day) was 130.4 x10_2/uL, the KIDNEY_L ([…], time 7 day) was 1.1 g and the KIDNEY_R ([…], time 7 day) was 1.1 g. For the same compound, the KIDNEY_TOTAL ([…], time 7 day) was 2.2 g, the KIDNEY_L ([…], time 14 day) was 1.3 g and the KIDNEY_R ([…], time 14 day) was 1.3 g. The KIDNEY_TOTAL ([…], time 14 day) was 2.6 g, the KIDNEY_L ([…], time 28 day) was 1.5 g and the KIDNEY_R ([…], time 28 day) was 1.5 g. For the same compound, the KIDNEY_TOTAL ([…], time 28 day) was 2.9 g, the LIVER ([…], time 7 day) was 12.4 g and the LIVER ([…], time 14 day) was 14.3 g. For the same compound, the LIVER ([…], time 28 day) was 15.3 g, the A/G ([…], time 7 day) was 1.9 and the ALP ([…], time 7 day) was 1187.4 IU/L. It also gave an ALT ([…], time 7 day) of 30.2 IU/L, an AST ([…], time 7 day) of 68.8 IU/L and a BUN ([…], time 7 day) of 16.2 mg/dL. For the same compound, the CRE ([…], time 7 day) was 0.4 mg/dL, the Ca ([…], time 7 day) was 13.7 mg/dL and the Cl ([…], time 7 day) was 99.2 meq/L. The DBIL ([…], time 7 day) was 0.014 mg/dL, the GLC ([…], time 7 day) was 197.2 mg/dL and the IP ([…], time 7 day) was 7.4 mg/dL. The K ([…], time 7 day) was 5.1 meq/L, the LDH ([…], time 7 day) was 157.8 IU/L and the Na ([…], time 7 day) was 130.2 meq/L. The PL ([…], time 7 day) was 165 mg/dL, the RALB ([…], time 7 day) was 3.6 g/dL and the TBIL ([…], time 7 day) was 0.048 mg/dL. For the same compound, the TC ([…], time 7 day) was 86.8 mg/dL, the TG ([…], time 7 day) was 171 mg/dL and the TP ([…], time 7 day) was 5.5 g/dL. It also gave a gamma-GTP ([…], time 7 day) of 1 IU/L, an A/G ([…], time 14 day) of 1.7 and an ALP ([…], time 14 day) of 1208.4 IU/L. For the same compound, the ALT ([…], time 14 day) was 31 IU/L, the AST ([…], time 14 day) was 67.8 IU/L and the BUN ([…], time 14 day) was 16.2 mg/dL. For the same compound, the CRE ([…], time 14 day) was 0.4 mg/dL, the Ca ([…], time 14 day) was 11.1 mg/dL and the Cl ([…], time 14 day) was 106.2 meq/L. For the same compound, the DBIL ([…], time 14 day) was 0.01 mg/dL, the GLC ([…], time 14 day) was 194.2 mg/dL and the IP ([…], time 14 day) was 6.9 mg/dL. For the same compound, the K ([…], time 14 day) was 5.2 meq/L, the LDH ([…], time 14 day) was 149 IU/L and the Na ([…], time 14 day) was 138.6 meq/L. The PL ([…], time 14 day) was 166 mg/dL, the RALB ([…], time 14 day) was 3.8 g/dL and the TBIL ([…], time 14 day) was 0.026 mg/dL. The TC ([…], time 14 day) was 91.4 mg/dL, the TG ([…], time 14 day) was 136.8 mg/dL and the TP ([…], time 14 day) was 6 g/dL. For the same compound, the gamma-GTP ([…], time 14 day) was 0.8 IU/L, the A/G ([…], time 28 day) was 1.5 and the ALP ([…], time 28 day) was 865.8 IU/L. It also gave an ALT ([…], time 28 day) of 27.8 IU/L, an AST ([…], time 28 day) of 67.6 IU/L and a BUN ([…], time 28 day) of 14.6 mg/dL. For the same compound, the CRE ([…], time 28 day) was 0.4 mg/dL, the Ca ([…], time 28 day) was 8.9 mg/dL and the Cl ([…], time 28 day) was 106 meq/L. For the same compound, the DBIL ([…], time 28 day) was 0.01 mg/dL, the GLC ([…], time 28 day) was 184.8 mg/dL and the IP ([…], time 28 day) was 6.2 mg/dL. It also gave a K ([…], time 28 day) of 4.9 meq/L, an LDH ([…], time 28 day) of 154.2 IU/L and a Na ([…], time 28 day) of 139.2 meq/L. For the same compound, the PL ([…], time 28 day) was 126.4 mg/dL, the RALB ([…], time 28 day) was 3.6 g/dL and the TBIL ([…], time 28 day) was 0.038 mg/dL. It also gave a TC ([…], time 28 day) of 63.6 mg/dL, a TG ([…], time 28 day) of 120.6 mg/dL and a TP ([…], time 28 day) of 6 g/dL. For the same compound, the gamma-GTP ([…], time 28 day) was 0.6 IU/L.
